# Assay results reported in US9751858B2, “3-heteroaroylamino-propionic acid derivatives and their use as pharmaceuticals” (SANOFI, priority 2011, dated 2017).
# Target: T1, Recombinant human cathepsin A (Homo sapiens, UniProt P10619)
# T1 construct: Recombinant human cathepsin A (residues 29-480, with a C-terminal 10-His tag); 10-His (C); purchased R&D Systems 1049-SE
# T1 sequence (P10619 29-326 limits assumed): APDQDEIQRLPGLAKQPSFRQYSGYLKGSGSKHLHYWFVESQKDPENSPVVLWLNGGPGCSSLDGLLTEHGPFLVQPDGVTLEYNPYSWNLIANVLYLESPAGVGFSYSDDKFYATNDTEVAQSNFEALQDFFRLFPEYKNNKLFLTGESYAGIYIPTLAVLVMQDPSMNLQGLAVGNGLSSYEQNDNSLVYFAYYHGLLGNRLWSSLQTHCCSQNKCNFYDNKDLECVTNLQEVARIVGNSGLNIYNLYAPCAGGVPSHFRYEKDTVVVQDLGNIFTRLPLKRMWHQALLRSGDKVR
# T1 sequence (P10619 327-480 limits assumed): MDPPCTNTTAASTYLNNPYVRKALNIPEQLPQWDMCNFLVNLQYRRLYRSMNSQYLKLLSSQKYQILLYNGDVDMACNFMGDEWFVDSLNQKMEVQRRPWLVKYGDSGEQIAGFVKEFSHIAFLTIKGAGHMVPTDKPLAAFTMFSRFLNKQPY
# Experiment: Cathepsin A inhibitory activity
# Format: biochemical
# Conditions: activated recombinant human cathepsin A 833 ng/ml, Bodipy FL-labeled bradykinin 2 μM, pH 5.5, 15 min room temperature
# Method: a) Cathepsin a Inhibitory Activity
# Briefly, cathepsin A was incubated at 10 μg/ml with cathepsin L at 1 μg/ml in activation buffer (25 mM 2-(morpholin-4-yl)-ethanesulfonic acid (MES), pH 6.0, containing 5 mM dithiothreitol (DTT)) for 15 min at 37° C.
# The activated cathepsin A was diluted in assay buffer (25 mM MES, pH 5.5, containing 5 mM DTT) and mixed with the test compound (dissolved in assay buffer containing (v/v) 3% DMSO) or, in the control experiments, with the vehicle in a multiple assay plate. After incubation for 15 min at room temperature, as substrate then bradykinin carrying an N-terminal ®Bodipy FL (4,4-difluoro-5,7-dimethyl-4-bora-3a,4a-diaza-s-indacene-3-propionyl) label (JPT Peptide Technologies GmbH; dissolved in assay buffer) was added to the mixture. […] After incubation for 15 min at room temperature the reaction was stopped by the addition of stop buffer (130 mM 2-(4-(2-hydroxy-ethyl)-piperazin-1-yl)-ethanesulfonic acid, pH 7.4, containing (v/v) 0.013%® Triton X-100, 0.13% Coating Reagent 3 (Caliper Life Sciences), 6.5% DMSO and 20 μM ebelactone B (Sigma, # E0886)).
# Uncleaved substrate and product were then separated by a microfluidic capillary electrophoresis on a LabChip® 3000 Drug Discovery System (12-Sipper-Chip; Caliper Life Sciences) and quantified by determination of the respective peak areas. Substrate turnover was calculated by dividing product peak area by the sum of substrate and product peak areas, and the enzyme activity and the inhibitory effect of the test compound thus quantified.
row,Structure (SMILES),IC50 [µM]
1,"O=C(N[C@H](C(=O)O)C1CCCCC1)c1noc(-c2cnccc2C(F)(F)F)n1 [Example 54, (S)-Cyclohexyl-{[5-(4-trifluoromethyl-pyridin-3-yl)-[1,2,4]oxadiazole-3-carbonyl]-amino}-acetic acid]",16.7
2,"Cn1cc(NS(=O)(=O)CC2CCCCC2)c(C(=O)N[C@@H](CC(=O)O)c2ccccc2)n1 [Example 109, (S)-3-[(4-Cyclohexylmethanesulfonylamino-1-methyl-1H-pyrazole-3-carbonyl)-amino]-3-phenyl-propionic acid]",> 10
3,"COc1cccc([C@H](CC(=O)O)NC(=O)c2nc(-c3ccccc3)oc2C(C)C)c1 [Example 65, (S)-3-[(5-Isopropyl-2-phenyl-oxazole-4-carbonyl)-amino]-3-(3-methoxy-phenyl)-propionic acid]",> 10
4,"Cc1ccccc1[C@H](CC(=O)O)NC(=O)c1nn(C)cc1NS(=O)(=O)Cc1ccccc1 [Example 117, (S)-3-[(1-Methyl-4-phenylmethanesulfonylamino-1H-pyrazole-3-carbonyl)-amino]-3-o-tolyl-propionic acid]",> 10
5,"COc1cccc([C@H](CC(=O)O)NC(=O)c2nc(-c3ccccc3)oc2C(F)(F)F)c1OC [Example 120, (S)-3-(2,3-Dimethoxy-phenyl)-3-[(2-phenyl-5-trifluoromethyl-oxazole-4-carbonyl)-amino]-propionic acid]",8.01
6,"Cc1cccc([C@H](CC(=O)O)NC(=O)c2noc(-c3cccc(F)c3F)n2)c1 [Example 39, (S)-3-{[5-(2,3-Difluoro-phenyl)-[1,2,4]oxadiazole-3-carbonyl]-amino}-3-m-tolyl-propionic acid]",9.37
7,"Cc1ccccc1[C@H](CC(=O)O)NC(=O)c1cc(S(=O)(=O)N(C)C)oc1C [Example 46, (S)-3-[(5-Dimethylsulfamoyl-2-methyl-furan-3-carbonyl)-amino]-3-o-tolyl-propionic acid]",> 10
8,"O=C(O)C[C@@H](Cc1ccccc1)NC(=O)c1noc(-c2cccc(F)c2F)n1 [Example 41, (R)-3-{[5-(2,3-Difluoro-phenyl)-[1,2,4]oxadiazole-3-carbonyl]-amino}-4-phenyl-butyric acid]",13.4

# Stronger by IC50, values ahead:
row,IC50 [µM],Structure (SMILES)
1,6,"Cc1ccc([C@H](CC(=O)O)NC(=O)c2noc(-c3cccc(F)c3F)n2)cc1 [Example 38, (S)-3-{[5-(2,3-Difluoro-phenyl)-[1,2,4]oxadiazole-3-carbonyl]-amino}-3-p-tolyl-propionic acid]"
2,4.75,"CCCC1CCCCN1C(=O)c1cc(C(=O)N[C@@H](CC(=O)O)c2ccccc2)nn1CC (stereo partly drawn) [Example 100, (S)-3-{[1-Ethyl-5-(2-propyl-piperidine-1-carbonyl)-1H-pyrazole-3-carbonyl]-amino}-3-phenyl-propionic acid]"
3,4.56,"CCCC1CCCCN1C(=O)c1cc(C(=O)N[C@@H](CC(=O)O)c2cccc(C)c2)nn1CC (stereo partly drawn) [Example 116, (S)-3-{[1-Ethyl-5-(2-propyl-piperidine-1-carbonyl)-1H-pyrazole-3-carbonyl]-amino}-3-m-tolyl-propionic acid]"
4,3.41,"Cc1oc(-c2ccccc2F)nc1C(=O)N[C@@H](CC(=O)O)c1ccc(Cl)cc1 [Example 63, (S)-3-(4-Chloro-phenyl)-3-{[2-(2-fluoro-phenyl)-5-methyl-oxazole-4-carbonyl]-amino}-propionic acid]"
5,2.23,"O=C(O)CC(Cc1ccccc1)NC(=O)c1nc(-c2ccccc2)n(-c2ccccc2)n1 (stereo not drawn) [Example 86, 3-[(1,5-Diphenyl-1H-[1,2,4]triazole-3-carbonyl)-amino]-4-phenyl-butyric acid]"
6,1.82,"CC(C)c1oc(-c2ccccc2)nc1C(=O)N[C@@H](CC(=O)O)c1ccc(F)cc1 [Example 48, (S)-3-(4-Fluoro-phenyl)-3-[(5-isopropyl-2-phenyl-oxazole-4-carbonyl)-amino]-propionic acid]"
7,0.075,"Cc1ccccc1[C@H](CC(=O)O)NC(=O)c1cc(-c2ccccc2)n(Cc2ccccc2)n1 [Example 98, (S)-3-[(1-Benzyl-5-phenyl-1H-pyrazole-3-carbonyl)-amino]-3-o-tolyl-propionic acid]"
